Reference: US20240174634A1, “Aldehyde Dehydrogenase Inhibitors and Their Therapeutic Use” (priority 2020, published 2024)

biological target: T1, ALDH2 (Homo sapiens, UniProt P05091); assay: Selectivity biochemical assay, NAD(P)H-Glo Detection System
T1 sequence (P05091 18-517): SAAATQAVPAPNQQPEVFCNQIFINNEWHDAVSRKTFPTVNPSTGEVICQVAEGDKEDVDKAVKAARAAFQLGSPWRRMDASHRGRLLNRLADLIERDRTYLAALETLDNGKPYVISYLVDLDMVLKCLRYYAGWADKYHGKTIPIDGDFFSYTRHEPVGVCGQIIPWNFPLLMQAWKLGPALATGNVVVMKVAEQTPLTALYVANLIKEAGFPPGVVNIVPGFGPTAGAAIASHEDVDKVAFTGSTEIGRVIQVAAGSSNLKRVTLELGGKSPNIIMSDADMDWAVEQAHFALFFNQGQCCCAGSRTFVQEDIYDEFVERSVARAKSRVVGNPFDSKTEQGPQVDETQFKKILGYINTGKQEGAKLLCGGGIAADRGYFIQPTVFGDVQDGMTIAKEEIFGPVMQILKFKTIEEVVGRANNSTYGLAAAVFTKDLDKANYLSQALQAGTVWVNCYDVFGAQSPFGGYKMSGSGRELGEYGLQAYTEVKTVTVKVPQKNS
Protocol: Materials: ALDH2 was purchased from Abnova. Tris(hydroxymethyl)aminomethane (Tris) was purchased from MP Biomedicals. TCEP, ethylenediaminetetraacetic acid (EDTA), propionaldehyde, DMSO and Tween-20 were purchased from Sigma. Nicotinamide adenine dinucleotide (NAD) was obtained from Abcam. The NAD(P)H-Glo™ Detection System was purchased from Promega. White, non-binding surface, 384 well plates were supplied by Corning (#3574).
Method: Inhibition of ALDH1A3 was assessed using the NAD(P)H-Glo™ Detection System (Cat. No. G9062) from Promega. This assay detects the production of NADH from NAD by ALDH1A3 via the coupled enzymatic conversion of a proluciferin reductase substrate to generate a luminescent signal. Inhibition of ALDH1A3 by small molecule inhibitors will result in reduction or abrogation of luminescence signal increase above background. Inhibition of ALDH1A1, ALDH1A2 and ALDH2 (selectivity assays) were assessed using the same assay.
Compounds were dosed into Corning 384 well assay plates using an Echo acoustic dispenser to give 10 point curves in a 3-fold dilution series. Compounds were dispensed from a 20 mM DMSO stock and initially screened at a top concentration of 20 μM (ALDH1A3) or 250 μM (ALDH1A1, ALDH1A2 & ALDH2). Enzyme was added to the plate in a 5 μL volume, according to the final concentrations in table 1 below, and pre-incubated with compound for 30 minutes at room temperature before the addition of 5 μL of the substrate (propionaldehyde) and cofactor (NAD), to effect final concentrations equal to the Km as shown in Table 1. The assay buffer used consisted of 40 mM Tris for 1A1 (pH 7.6), 1A2 (pH 7.6) and 1A3 (pH 9.0) and 10 mM Tris for ALDH2 (pH 8.0) supplemented with 1 mM TCEP, 0.01% Tween-20, 0.1 mM EDTA. The reaction mix was incubated at 26° C. on a shaking incubator for 30 minutes before being stopped by the addition of 10 μL of the Promega detection reagent and 100×IC50 of inhibitors of the respective isoforms. After stopping the reaction the plate was incubated for 60 minutes at room temperature and the luminescence signal read on a PheraStar FS microplate reader (BMG Labtech) and resulting IC50 values were calculated using Dotmatics software.
Enzyme, substrate and cofactor concentrations were selected to ensure the reaction ran under initial velocity conditions.

Structure (SMILES) | IC50 [µM]
O=C1CCc2cc(OCCN3CCCC3c3ccsc3)ccc2N1 (stereo not shown) [ALDHI-2014, 6-[2-[2-(3-thienyl)pyrrolidin-1-yl]ethoxy]-3,4-dihydro-1H-quinolin-2-one] | ≥ 100
CC1Cc2cc(OCCN3CCCC3c3cccc(F)c3)ccc2NC1=O (stereo not shown) [ALDHI-2048, 6-[2-[2-(3-fluorophenyl)pyrrolidin-1-yl]ethoxy]-3-methyl-3,4-dihydro-1H-quinolin-2-one] | ≥ 100
O=C1CCc2cc(NC(=O)c3scnc3-c3ccccc3Cl)ccc2N1 [ALDHI-1012, 4-(2-chlorophenyl)-N-(2-oxo-3,4-dihydro-1H-quinolin-6-yl)thiazole-5-carboxamide] | ≥ 100
O=C1CCc2cc(OCCN3CCCC3c3cccs3)ccc2N1 (stereo not shown) [ALDHI-2013, 6-[2-[2-(2-thienyl)pyrrolidin-1-yl]ethoxy]-3,4-dihydro-1H-quinolin-2-one] | ≥ 100
CC1CN(CCOc2ccc3c(c2)CCC(=O)N3)C(c2ccccc2)CO1 (mixture of isomers) [ALDHI-2042, 6-[2-(2-methyl-5-phenyl-morpholin-4-yl)ethoxy]-3,4-dihydro-1H-quinolin-2-one] | ≥ 100
O=C1CCc2cc(OCCN3CC(O)CC3c3cccc(F)c3)ccc2N1 (mixture of isomers) [ALDHI-2035, 6-[2-[2-(3-fluorophenyl)-4-hydroxy-pyrrolidin-1-yl]ethoxy]-3,4-dihydro-1H-quinolin-2-one] | ≥ 100
Cn1cc(C2CCCN2CCOc2ccc3c(c2)SCC(=O)N3)cn1 (stereo not shown) [ALDHI-2026, 7-[2-[2-(1-methylpyrazol-4-yl)pyrrolidin-1-yl]ethoxy]-4H-1,4-benzothiazin-3-one] | ≥ 100
O=C1CCc2cc(OCCN3CCC3c3cccc(F)c3)ccc2N1 (stereo not shown) [ALDHI-2021, 6-[2-[2-(3-fluorophenyl)azetidin-1-yl]ethoxy]-3,4-dihydro-1H-quinolin-2-one] | ≥ 100
O=C1CCc2cc(OCCN3CCCC3c3cccnc3)ccc2N1 (stereo not shown) [ALDHI-2005, 6-[2-[2-(3-pyridyl)pyrrolidin-1-yl]ethoxy]-3,4-dihydro-1H-quinolin-2-one] | ≥ 100
O=C1CCc2cc(OCCN3CCC[C@H]3c3cccc(F)c3)ccc2N1 [ALDHI-2018, 6-[2-[(2S)-2-(3-fluorophenyl)pyrrolidin-1-yl]ethoxy]-3,4-dihydro-1H-quinolin-2-one] | ≥ 100
C[C@@H](c1ccccc1)N(CCO)CCOc1ccc2c(c1)CCC(=O)N2 [ALDHI-3007, 6-[2-[2-hydroxyethyl-[(1S)-1-phenylethyl]amino]ethoxy]-3,4-dihydro-1H-quinolin-2-one] | ≥ 100
O=C1COc2cc(OCCN3CCCC3c3cccc(F)c3)ccc2N1 (stereo not shown) [ALDHI-2009, 7-[2-[2-(3-fluorophenyl)pyrrolidin-1-yl]ethoxy]-4H-1,4-benzoxazin-3-one] | ≥ 100
CC1(c2cccc(F)c2)CCCN1CCOc1ccc2c(c1)CCC(=O)N2 (stereo not shown) [ALDHI-2037, 6-[2-[2-(3-fluorophenyl)-2-methyl-pyrrolidin-1-yl]ethoxy]-3,4-dihydro-1H-quinolin-2-one] | ≥ 100
O=C1CSc2cc(OCCN3CCCC3c3cccc(F)c3)ccc2N1 (stereo not shown) [ALDHI-2008, 7-[2-[2-(3-fluorophenyl)pyrrolidin-1-yl]ethoxy]-4H-1,4-benzothiazin-3-one] | ≥ 100
O=C1CCc2cc(OCCN3CCCC3c3ccc(F)cc3)ccc2N1 (stereo not shown) [ALDHI-2003, 6-[2-[2-(4-fluorophenyl)pyrrolidin-1-yl]ethoxy]-3,4-dihydro-1H-quinolin-2-one] | 10 to 100
O=C1CCc2cc(OCCN3CCCC3c3cccc(F)c3)ccc2N1 (stereo not shown) [ALDHI-2001, 6-[2-[2-(3-fluorophenyl)pyrrolidin-1-yl]ethoxy]-3,4-dihydro-1H-quinolin-2-one] | ≥ 100
O=C1CCc2cc(NC(=O)c3ccccc3-c3cccc(F)c3)ccc2N1 [ALDHI-1007, 3′-fluoro-N-(2-oxo-1,2,3,4-tetrahydroquinolin-6-yl)-[1,1′-biphenyl]-2-carboxamide] | ≥ 100

Structure (SMILES) | IC50 [µM]
O=C1CCCc2cc(OCCN3CCCC3c3cccc(F)c3)ccc2N1 (stereo not shown) [ALDHI-2020, 7-[2-[2-(3-fluorophenyl)pyrrolidin-1-yl]ethoxy]-1,3,4,5-tetrahydro-1-benzazepin-2-one] | ≥ 100
Cc1ccc(C2CCCN2CCOc2ccc3c(c2)CCC(=O)N3)cn1 (stereo not shown) [ALDHI-2030, 6-[2-[2-(6-methyl-3-pyridyl)pyrrolidin-1-yl]ethoxy]-3,4-dihydro-1H-quinolin-2-one] | ≥ 100
O=C1CCc2cc(NC(=O)c3scnc3-c3ccccc3F)ccc2N1 [ALDHI-1021, 4-(2-fluorophenyl)-N-(2-oxo-3,4-dihydro-1H-quinolin-6-yl)thiazole-5-carboxamide] | ≥ 100
CC1(c2ccccc2)COCCN1CCOc1ccc2c(c1)CCC(=O)N2 (stereo not shown) [ALDHI-2040, 6-[2-(3-methyl-3-phenyl-morpholin-4-yl)ethoxy]-3,4-dihydro-1H-quinolin-2-one] | ≥ 100
O=C1CCc2cc(NC(=O)c3sc(N4CCNCC4)nc3-c3cccc(F)c3)ccc2N1 [ALDHI-1005, 4-(3-fluorophenyl)-N-(2-oxo-3,4-dihydro-1H-quinolin-6-yl)-2-piperazin-1-yl-thiazole-5-carboxamide] | ≥ 100
O=C1CCc2cc(NC(=O)c3ncsc3-c3cccc(F)c3)ccc2N1 [ALDHI-1014, 5-(3-fluorophenyl)-N-(2-oxo-3,4-dihydro-1H-quinolin-6-yl)thiazole-4-carboxamide] | ≥ 100
O=C1CCc2cc(OCCN3CCCCC3c3cccc(F)c3)ccc2N1 (stereo not shown) [ALDHI-2038, 6-[2-[2-(3-fluorophenyl)-1-piperidyl]ethoxy]-3,4-dihydro-1H-quinolin-2-one] | ≥ 100
O=C1CCc2cc(OCCN3CCC[C@@H]3c3cccc(F)c3)ccc2N1 [ALDHI-2007, 6-[2-[(2R)-2-(3-fluorophenyl)pyrrolidin-1-yl]ethoxy]-3,4-dihydro-1H-quinolin-2-one] | ≥ 100
CN(CCOc1ccc2c(c1)CCC(=O)N2)C(CO)c1cccc(F)c1 (stereo not shown) [ALDHI-3003, 6-[2-[[1-(3-fluorophenyl)-2-hydroxy-ethyl]-methyl-amino]ethoxy]-3,4-dihydro-1H-quinolin-2-one] | ≥ 100
O=C1CCc2cc(OCCN3CCCC3c3ccc(F)c(F)c3)ccc2N1 (stereo not shown) [ALDHI-2039, 6-[2-[2-(3,4-difluorophenyl)pyrrolidin-1-yl]ethoxy]-3,4-dihydro-1H-quinolin-2-one] | ≥ 100
O=C1CCc2cc(OCCN3CCCC3c3ccccn3)ccc2N1 (stereo not shown) [ALDHI-2006, 6-[2-[2-(2-pyridyl)pyrrolidin-1-yl]ethoxy]-3,4-dihydro-1H-quinolin-2-one] | ≥ 100
O=C1CCc2cc(OCCN3CCCC3c3cccc(F)c3)c(F)cc2N1 (stereo not shown) [ALDHI-2050, 7-fluoro-6-[2-[2-(3-fluorophenyl)pyrrolidin-1-yl]ethoxy]-3,4-dihydro-1H-quinolin-2-one] | ≥ 100
O=C1CCc2cc(OCCN(CCO)Cc3cccc(F)c3)ccc2N1 [ALDHI-3002, 6-[2-[(3-fluorophenyl)methyl-(2-hydroxyethyl)amino]ethoxy]-3,4-dihydro-1H-quinolin-2-one] | ≥ 100
CCC1Oc2cc(OCCN3CCCC3c3cccc(F)c3)ccc2NC1=O (stereo not shown) [ALDHI-2045, 2-ethyl-7-[2-[2-(3-fluorophenyl)pyrrolidin-1-yl]ethoxy]-4H-1,4-benzoxazin-3-one] | ≥ 100
CN(C)c1nc(-c2cccc(F)c2)c(C(=O)Nc2ccc3c(c2)CCC(=O)N3)s1 [ALDHI-1002, 2-(dimethylamino)-4-(3-fluorophenyl)-N-(2-oxo-3,4-dihydro-1H-quinolin-6-yl)thiazole-5-carboxamide] | ≥ 100
Cc1nc(C2CCCN2CCOc2ccc3c(c2)CCC(=O)N3)cs1 (stereo not shown) [ALDHI-2033, 6-[2-[2-(2-methylthiazol-4-yl)pyrrolidin-1-yl]ethoxy]-3,4-dihydro-1H-quinolin-2-one] | ≥ 100
O=c1ccc2cc(OCCN3CCCC3c3cccc(F)c3)ccc2[nH]1 (stereo not shown) [ALDHI-2022, 6-[2-[2-(3-fluorophenyl)pyrrolidin-1-yl]ethoxy]-1H-quinolin-2-one] | ≥ 100
